For data set [1], the target named is Genome polyprotein (dengue virus type 2) (UniProt P29990). Put plainly: Inhibition of Dengue virus serotype 2 NS2B-NS3 protease at 50 uM preincubated with protein for 15 mins followed by Abz-Nle-Lys-Arg-Arg-Ser-3-(NO2)Tyr substrate addition and measured by continuous fluorometric analysis relative to control.
Data set [2] deals with Genome polyprotein (West Nile virus) (UniProt P06935). Put plainly: Inhibition of West Nile virus NS2B-NS3 protease preincubated with protein for 15 mins followed by Abz-Gly-Leu-Lys-Arg-Gly-Gly-3-(NO2)-Tyr substrate addition and measured by continuous fluorometric analysis relative to control. Set-up: concentration or dose not given beside the values.
Chain of Genome polyprotein (West Nile virus) (P06935 whole entry): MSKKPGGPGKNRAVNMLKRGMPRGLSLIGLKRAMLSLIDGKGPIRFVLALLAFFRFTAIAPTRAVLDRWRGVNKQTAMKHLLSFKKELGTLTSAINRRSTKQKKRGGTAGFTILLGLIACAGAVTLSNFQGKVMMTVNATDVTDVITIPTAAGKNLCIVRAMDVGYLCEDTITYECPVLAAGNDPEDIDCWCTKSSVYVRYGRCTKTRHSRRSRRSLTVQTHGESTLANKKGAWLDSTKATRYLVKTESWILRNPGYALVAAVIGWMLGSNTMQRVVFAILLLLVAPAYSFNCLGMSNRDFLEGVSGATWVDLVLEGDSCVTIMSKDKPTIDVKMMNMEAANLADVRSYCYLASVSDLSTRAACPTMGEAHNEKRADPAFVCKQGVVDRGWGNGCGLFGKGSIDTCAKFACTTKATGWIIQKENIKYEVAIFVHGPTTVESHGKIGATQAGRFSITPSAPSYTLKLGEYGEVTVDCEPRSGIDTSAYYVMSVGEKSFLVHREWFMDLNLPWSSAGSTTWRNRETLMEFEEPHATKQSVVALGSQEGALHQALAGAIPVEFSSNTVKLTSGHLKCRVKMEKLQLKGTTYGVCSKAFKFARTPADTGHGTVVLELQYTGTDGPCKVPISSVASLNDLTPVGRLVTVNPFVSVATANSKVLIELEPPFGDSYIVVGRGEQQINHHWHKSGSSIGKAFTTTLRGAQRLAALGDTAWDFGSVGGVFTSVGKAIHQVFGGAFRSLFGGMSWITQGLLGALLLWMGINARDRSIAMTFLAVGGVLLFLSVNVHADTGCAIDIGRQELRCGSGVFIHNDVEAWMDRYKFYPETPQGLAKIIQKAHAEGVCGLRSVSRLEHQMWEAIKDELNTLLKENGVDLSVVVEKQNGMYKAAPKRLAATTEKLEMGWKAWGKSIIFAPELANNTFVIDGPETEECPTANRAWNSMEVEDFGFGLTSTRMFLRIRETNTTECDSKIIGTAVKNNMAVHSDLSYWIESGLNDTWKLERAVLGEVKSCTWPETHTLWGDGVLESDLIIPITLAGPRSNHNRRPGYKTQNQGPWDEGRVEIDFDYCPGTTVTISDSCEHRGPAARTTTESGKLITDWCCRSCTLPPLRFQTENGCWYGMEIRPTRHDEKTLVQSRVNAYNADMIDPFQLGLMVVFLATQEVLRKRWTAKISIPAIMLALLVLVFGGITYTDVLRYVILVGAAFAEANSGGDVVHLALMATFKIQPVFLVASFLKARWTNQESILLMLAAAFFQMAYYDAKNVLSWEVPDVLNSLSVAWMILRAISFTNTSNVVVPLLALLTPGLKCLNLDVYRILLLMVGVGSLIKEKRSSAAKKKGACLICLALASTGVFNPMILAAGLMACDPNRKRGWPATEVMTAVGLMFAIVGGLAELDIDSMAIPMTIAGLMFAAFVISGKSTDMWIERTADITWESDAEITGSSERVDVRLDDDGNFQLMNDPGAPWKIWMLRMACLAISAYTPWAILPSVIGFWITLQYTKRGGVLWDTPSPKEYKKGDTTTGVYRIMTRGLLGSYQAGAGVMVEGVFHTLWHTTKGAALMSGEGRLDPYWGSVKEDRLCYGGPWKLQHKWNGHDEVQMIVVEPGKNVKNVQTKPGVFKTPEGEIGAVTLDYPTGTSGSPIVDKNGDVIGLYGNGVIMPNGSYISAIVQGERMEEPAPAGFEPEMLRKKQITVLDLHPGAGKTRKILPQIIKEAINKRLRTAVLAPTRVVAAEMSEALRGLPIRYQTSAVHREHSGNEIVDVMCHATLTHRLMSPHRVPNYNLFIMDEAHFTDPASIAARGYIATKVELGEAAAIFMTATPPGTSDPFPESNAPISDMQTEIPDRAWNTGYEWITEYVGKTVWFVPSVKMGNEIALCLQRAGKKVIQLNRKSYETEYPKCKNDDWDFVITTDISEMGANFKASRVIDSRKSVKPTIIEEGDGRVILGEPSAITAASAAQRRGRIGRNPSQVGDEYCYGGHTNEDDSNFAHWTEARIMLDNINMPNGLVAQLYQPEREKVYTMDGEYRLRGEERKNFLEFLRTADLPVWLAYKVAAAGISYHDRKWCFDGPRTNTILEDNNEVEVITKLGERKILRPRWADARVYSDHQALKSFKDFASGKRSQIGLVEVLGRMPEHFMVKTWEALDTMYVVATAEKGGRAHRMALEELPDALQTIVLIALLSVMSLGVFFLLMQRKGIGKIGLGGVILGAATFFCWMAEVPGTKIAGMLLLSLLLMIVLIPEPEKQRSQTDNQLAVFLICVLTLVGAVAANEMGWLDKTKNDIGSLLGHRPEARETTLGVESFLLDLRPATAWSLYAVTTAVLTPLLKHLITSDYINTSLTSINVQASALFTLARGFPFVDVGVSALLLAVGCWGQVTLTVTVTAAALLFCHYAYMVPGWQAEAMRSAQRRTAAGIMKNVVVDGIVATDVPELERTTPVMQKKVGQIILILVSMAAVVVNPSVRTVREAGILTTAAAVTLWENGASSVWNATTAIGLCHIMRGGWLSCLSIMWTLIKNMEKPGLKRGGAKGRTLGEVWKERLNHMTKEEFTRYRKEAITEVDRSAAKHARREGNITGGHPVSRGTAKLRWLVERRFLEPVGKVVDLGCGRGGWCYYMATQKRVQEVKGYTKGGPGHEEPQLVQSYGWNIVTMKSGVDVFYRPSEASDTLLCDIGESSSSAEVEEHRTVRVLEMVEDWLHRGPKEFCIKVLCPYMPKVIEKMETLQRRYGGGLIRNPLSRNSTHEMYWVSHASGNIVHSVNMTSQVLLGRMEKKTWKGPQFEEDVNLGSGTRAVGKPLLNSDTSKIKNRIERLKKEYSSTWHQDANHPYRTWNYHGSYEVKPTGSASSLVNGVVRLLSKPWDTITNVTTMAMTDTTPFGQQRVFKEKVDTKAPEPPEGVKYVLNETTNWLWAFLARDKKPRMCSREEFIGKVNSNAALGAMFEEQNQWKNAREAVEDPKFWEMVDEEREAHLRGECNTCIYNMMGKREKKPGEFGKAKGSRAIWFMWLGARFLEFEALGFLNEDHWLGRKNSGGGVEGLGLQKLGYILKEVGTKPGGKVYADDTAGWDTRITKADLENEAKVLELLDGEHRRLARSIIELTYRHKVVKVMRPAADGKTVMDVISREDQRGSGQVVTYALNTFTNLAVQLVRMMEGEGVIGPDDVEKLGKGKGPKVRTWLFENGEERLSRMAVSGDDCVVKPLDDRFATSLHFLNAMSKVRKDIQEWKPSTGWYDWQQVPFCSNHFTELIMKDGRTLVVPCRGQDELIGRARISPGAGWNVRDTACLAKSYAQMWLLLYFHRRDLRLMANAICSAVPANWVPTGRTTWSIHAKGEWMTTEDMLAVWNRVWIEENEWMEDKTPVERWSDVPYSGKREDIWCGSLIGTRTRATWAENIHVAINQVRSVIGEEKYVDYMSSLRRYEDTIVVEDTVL
The target of data set [3] is Prothrombin (Homo sapiens) (UniProt P00734). Put plainly: Inhibition of human thrombin at 25 uM preincubated with protein for 15 mins followed by boc-Val-Pro-Arg-AMC substrate addition and measured after 10 mins by continuous fluorometric analysis relative to control.
The target in data set [4] is T1, Trypsin (Homo sapiens, UniProt P07477+P07478+P35030). Put plainly: Inhibition of trypsin (unknown origin) at 50 uM preincubated with protein for 15 mins followed by boc-Val-Pro-Arg-AMC substrate addition and measured by continuous fluorometric analysis relative to control. It is filed as protein assay.
Data set [5] has as its target Genome polyprotein (dengue virus type 2, UniProt P29990). Put plainly: Inhibition of Dengue virus serotype 2 NS2B-NS3 protease preincubated with protein for 15 mins followed by Abz-Nle-Lys-Arg-Arg-Ser-3-(NO2)Tyr substrate addition and measured by continuous fluorometric analysis.
Data set [6] concerns the target Genome polyprotein (West Nile virus, UniProt P06935). Put plainly: Inhibition of West Nile virus NS2B-NS3 protease preincubated with protein for 15 mins followed by Abz-Gly-Leu-Lys-Arg-Gly-Gly-3-(NO2)-Tyr substrate addition and measured by continuous fluorometric analysis.
Data set [7] can be described thus: Metabolic stability in Sprague-Dawley rat liver microsomes assessed as compound degradation by measuring half life incubated for 120 mins by HPLC and UV analysis. It is filed as ADME, Microsome. Conditions: for Stability: microsomes, 2 h. (Liver microsomes are vesicles of endoplasmic reticulum, rich in cytochrome P450 enzymes.)
Data set [8] in a line: Metabolic stability assessed as alpha-chymotrypsin (unknown origin)-mediated drug degradation by measuring half life in pH 7.4 phosphate buffer incubated up to 60 mins at 37 degC by HPLC and UV analysis. The note with it: human; for Stability: buffer, pH 7.4, 1 h. It is filed as ADME.
The target of data set [9] is T1, Trypsin. Put plainly: Metabolic stability assessed as trypsin (unknown origin)-mediated drug degradation by measuring half life in pH 7.5 Tris buffer incubated up to 60 mins at 37 degC by HPLC and UV analysis. In kind it is ADME, protein assay. The note with it: pH 7.5, 1 h.
The nature of data set [10]: Metabolic stability in Sprague-Dawley rat liver microsomes assessed as compound remaining after 120 mins by HPLC and UV analysis. In kind it is ADME, Microsome. The note with it: read-out: Stability.

Where a SMILES comes first, the peptide text is derived from it. [ ]: non-standard residue; d: D form. The star is where a group is joined. dPhg = N[C@@H](C(=O)O)c1ccccc1; Phg = N[C@H](C(=O)O)c1ccccc1; Bz = O=C(c1ccccc1)*

Chain of Genome polyprotein (West Nile virus, UniProt P06935) (P06935 1371-1501 limits assumed): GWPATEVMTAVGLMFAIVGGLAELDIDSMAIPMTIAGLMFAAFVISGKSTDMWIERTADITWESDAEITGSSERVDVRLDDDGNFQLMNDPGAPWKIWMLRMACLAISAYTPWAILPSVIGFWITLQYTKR
Chain of Genome polyprotein (West Nile virus, UniProt P06935) (P06935 1502-2120 limits assumed): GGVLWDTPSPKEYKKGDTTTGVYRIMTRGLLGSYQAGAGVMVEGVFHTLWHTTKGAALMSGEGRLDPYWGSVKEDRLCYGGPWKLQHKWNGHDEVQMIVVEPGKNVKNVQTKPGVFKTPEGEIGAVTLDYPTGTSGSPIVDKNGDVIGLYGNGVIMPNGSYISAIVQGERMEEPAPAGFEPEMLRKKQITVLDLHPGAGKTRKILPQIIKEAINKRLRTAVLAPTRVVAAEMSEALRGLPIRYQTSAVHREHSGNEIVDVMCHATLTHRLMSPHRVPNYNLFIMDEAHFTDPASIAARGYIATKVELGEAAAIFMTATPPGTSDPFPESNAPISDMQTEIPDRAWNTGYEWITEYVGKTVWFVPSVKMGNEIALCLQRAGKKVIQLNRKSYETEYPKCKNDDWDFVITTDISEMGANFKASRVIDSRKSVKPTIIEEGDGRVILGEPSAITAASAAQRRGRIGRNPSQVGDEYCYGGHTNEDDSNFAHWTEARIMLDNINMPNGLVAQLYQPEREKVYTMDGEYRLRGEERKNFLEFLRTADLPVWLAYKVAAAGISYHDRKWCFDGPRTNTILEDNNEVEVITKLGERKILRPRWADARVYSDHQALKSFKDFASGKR

Turning to `N=C(N)NCCC[C@H](NC(=O)c1ccccc1)C(=O)N[C@@H](CCCCN)C(=O)N[C@@H](CC(N)=O)c1ccccc1`, the inhibition in data set [1] was 17.6%; in data set [2], 12.6%; in data set [3] it was less than 5%; on Trypsin [4], 7.5%.

`N=C(N)NCCC[C@H](NC(=O)c1ccccc1)C(=O)N[C@@H](CCCCN)C(=O)NC(C(N)=O)(c1ccccc1)c1ccccc1`: the inhibition in data set [1] was 20.6%; in data set [2], 33.3%; in data set [3], less than 5%; on Trypsin [4], 45.5%.

On to `N=C(N)NCCC[C@H](NC(=O)c1ccccc1)C(=O)N[C@@H](CCCCN)C(=O)N(CC(N)=O)c1ccccc1`, for which the inhibition in [1] is 28.9%; in data set [2], 19.8%; in [3] it was less than 5%; against Trypsin [4], less than 5%.

As to `N=C(N)NCCCN(CC(=O)N[C@@H](CCCCN)C(=O)N[C@@H](C(N)=O)c1ccccc1)C(=O)c1ccccc1`, the inhibition was 32.7% in data set [1], 12.4% in data set [2], less than 5% in [3] and less than 5% on Trypsin [4].

On to `N=C(N)NCCC[C@H](NC(=O)c1ccccc1)C(=O)N[C@@H](CCCCN)C(=O)N[C@H](C(N)=O)c1ccccc1` (Bz-Arg-Lys-[Phg]-NH2), for which the figures for the inhibition (in data set [1]; in data set [3]; against Trypsin [4]) were 95%, less than 5% and less than 5%, respectively. On Genome polyprotein [5], this compound returned an IC50 of 3.3 µM.

As to `N=C(N)NCCC[C@H](NC(=O)c1ccccc1)C(=O)N[C@@H](CCCCN)C(=O)N[C@@H](C(N)=O)c1ccccc1` (Bz-Arg-Lys-[dPhg]-NH2), the inhibition is 99.3% in data set [1], 99% in data set [2], less than 5% in data set [3] and 12.5% at Trypsin [4]. The IC50 against Genome polyprotein [5] and on Genome polyprotein [6] was 3.8 µM throughout. For the same compound, the Stability entry (in [7]; on Trypsin [9]) was “Stable” in each case. Besides, the half-life in data set [8] (alpha-chymotrypsin in phosphate buffer, pH 7.4) worked out at 11 min.

Turning to `N=C(N)NCCC[C@H](N[C@H](c1ccccc1)C(F)(F)F)C(=O)N[C@@H](CCCCN)C(=O)N[C@@H](C(N)=O)c1ccccc1`, the inhibition is 43.7% in [1], 24.6% in data set [2], less than 5% in data set [3] and less than 5% against Trypsin [4].

For the compound `CN(C(=O)[C@H](CCCNC(=N)N)NC(=O)c1ccccc1)[C@@H](CCCCN)C(=O)N[C@@H](C(N)=O)c1ccccc1`, the inhibition was 36.3% in data set [1], less than 5% in data set [2], less than 5% in [3] and less than 5% against Trypsin [4].

For the compound `N=C(N)NCCC[C@H](NC(=O)c1ccccc1)C(=O)N(CCCCN)CC(=O)N[C@@H](C(N)=O)c1ccccc1`, the inhibition was less than 5% in [1], 18.4% in data set [2], less than 5% in [3] and 10.6% on Trypsin [4].

With `CC(NC(=O)[C@H](CCCCN)NC(=O)[C@H](CCCNC(=N)N)NC(=O)c1ccccc1)(C(N)=O)c1ccccc1` (stereo partly drawn), the inhibition in data set [1] was 97.8%; in data set [2], 59.8%; in data set [3], 9.1%; on Trypsin [4], less than 5%. Besides, the 50% inhibitory concentration (IC50) is 1.3 µM against Genome polyprotein [5] and 24.3 µM on Genome polyprotein [6].

Take `C[C@]12CC[C@H]3[C@@H](CCC4=CC(=O)CC[C@@]43C)[C@@H]1CC[C@@H]2O` [TESTOSTERONE]: the half-life in data set [7] (Sprague-Dawley, liver microsomes) is 9 to 35 min.

On to `CCC(NC(=O)[C@H](CCCCN)NC(=O)[C@H](CCCNC(=N)N)NC(=O)c1ccccc1)(C(N)=O)c1ccccc1` (stereo partly drawn), for which the inhibition in data set [1] was 35.2%; in data set [2] it was 12.1%; in [3], less than 5%; on Trypsin [4], 8.7%.

With `CN(C(=O)c1ccccc1)[C@@H](CCCNC(=N)N)C(=O)N[C@@H](CCCCN)C(=O)N[C@@H](C(N)=O)c1ccc(OCc2ccccc2)cc1`, the inhibition in [1] was 97.8%; in data set [2], 92%; in data set [3], 5.5%; against Trypsin [4] it was less than 5%. Further, the IC50 against Genome polyprotein [5] stood at 1.6 µM; at Genome polyprotein [6], 7.1 µM. Further, in data set [7], the Stability result is reported as “Stable”.

In the case of `N=C(N)NCCC[C@H](NC(=O)c1ccccc1)C(=O)N[C@@H](CCCCN)CC(=O)N[C@@H](C(N)=O)c1ccccc1`, the inhibition was 31.8% in data set [1], 14.6% in data set [2], less than 5% in [3] and less than 5% on Trypsin [4].

Take `N=C(N)NCCC[C@@H](NC(=O)[C@@H](N)Cc1ccc(O)cc1)C(=O)N[C@@H](Cc1ccccc1)C(=O)N[C@@H](Cc1ccccc1)C(N)=O` (H-Y[dR]FF-NH2): the remaining at 2 h in data set [10] was 85%. Moreover, the values for the Stability entry (in data set [8]; at Trypsin [9]) were “Unstable” and “Stable”, respectively.

Turning to `CN(C(=O)c1ccccc1)[C@@H](CCCNC(=N)N)C(=O)N[C@@H](CCCCN)C(=O)N[C@@](C)(C(N)=O)c1ccccc1`, the inhibition in data set [1] is 93.9%; in data set [2], 50.8%; in data set [3], less than 5%; at Trypsin [4] it was 10.9%. The compound further showed a half-inhibitory concentration (IC50) against Genome polyprotein [5] of 3 µM.

Consider `N=C(N)NCCC[C@H](NC(=O)C(=O)c1ccccc1)C(=O)N[C@@H](CCCCN)C(=O)N[C@@H](C(N)=O)c1ccccc1`, for which the inhibition in data set [1] was 94%; in [2] it was 43.2%; in data set [3], less than 5%; on Trypsin [4], 33.5%. Further, the IC50 on Genome polyprotein [5] worked out at 4.1 µM.

Consider `CN(C(=O)[C@H](CCCCN)NC(=O)[C@H](CCCNC(=N)N)NC(=O)c1ccccc1)[C@@H](C(N)=O)c1ccccc1`, for which the inhibition in data set [1] was 33%; in data set [2], 36.7%; in [3] it was less than 5%; on Trypsin [4] it was less than 5%.

In the case of `N=C(N)NCCC[C@H](N[C@@H](c1ccccc1)C(F)(F)F)C(=O)N[C@@H](CCCCN)C(=O)N[C@@H](C(N)=O)c1ccccc1`, the inhibition was 32.1% in data set [1], 6% in data set [2], less than 5% in data set [3] and less than 5% against Trypsin [4].

Take `C[C@](NC(=O)[C@H](CCCCN)NC(=O)[C@H](CCCNC(=N)N)NC(=O)c1ccccc1)(C(N)=O)c1ccccc1`: the inhibition came to 99.1% in [1], 82.5% in data set [2], 6.5% in data set [3] and 11.8% against Trypsin [4]. Also, the figures for the IC50 on Genome polyprotein [5] and at Genome polyprotein [6] were 0.6 µM and 14.3 µM, respectively. Moreover, the Stability result (in data set [7]; in data set [8]; on Trypsin [9]) was “Stable” throughout.

Consider `N=C(N)NCCC[C@H](NC(=O)c1ccccc1)C(=O)N[C@@H](CCCCN)C(=O)N[C@@H](C(N)=O)c1ccc(OCc2ccccc2)cc1`, for which the inhibition is 100% in [1], 101% in [2], 7.8% in [3] and 18.4% at Trypsin [4]. Besides, the IC50 turned out to be 0.4 µM against Genome polyprotein [5] and 0.8 µM against Genome polyprotein [6]. In addition, the Stability result (in data set [7]; at Trypsin [9]) was “Stable” each time.

Turning to `C[C@@](NC(=O)[C@H](CCCCN)NC(=O)[C@H](CCCNC(=N)N)NC(=O)c1ccccc1)(C(N)=O)c1ccccc1`, the inhibition was 81.7% in data set [1], 47.4% in data set [2], less than 5% in [3] and 20.7% against Trypsin [4]. On Genome polyprotein [5], this compound showed an IC50 of 9.5 µM.

Consider `N=C(N)NCCC[C@H](NC(=O)c1ccccc1)C(=O)N[C@@H](CCCCN)CC(=O)N(CC(N)=O)c1ccccc1`, for which the inhibition was 22.7% in data set [1], 17.7% in data set [2], less than 5% in data set [3] and less than 5% at Trypsin [4].

Turning to `CN(C(=O)c1ccccc1)[C@@H](CCCNC(=N)N)C(=O)N[C@@H](CCCCN)C(=O)N[C@@H](C(N)=O)c1ccccc1`, the inhibition in data set [1] is 93.6%; in [2] it was 48.4%; in data set [3], less than 5%; against Trypsin [4] it was less than 5%. Further, the IC50 on Genome polyprotein [5] is 3.6 µM. Also, the Stability entry (in data set [7]; in data set [8]; on Trypsin [9]) was “Stable” each time.

For orientation: inhibition means the drop in the measured response relative to a control, in per cent. By IC50 is commonly meant the point on the concentration scale where inhibition reaches its midpoint. The half-life is how long it takes for the measured level to halve.

For the origin of these results see ChEMBL document CHEMBL4387750, “Backbone modifications in peptidic inhibitors of flaviviral proteases” (Bioorg Med Chem Lett, 2019).
